Test in all cases: NCI tumour cell line growth inhibition, 48 h
Experiment [1] concerns MOLT-4 leukemia.
The test system of experiment [2] is U251 CNS.
The subject of experiment [3] is NCI-H522 lung.
Experiment [4] deals with CAKI-1 renal.
Experiment [5] relates to SNB-19 CNS.
For experiment [6], the system named is A549 NSCLC.
Experiment [7] concerns SK-MEL-5 melanoma.
Experiment [8] relates to SF-295 CNS.
Experiment [9] relates to HOP-92 NSCLC.
Experiment [10] relates to MALME-3M melanoma.

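These data come from cells grown in 96-well plates and exposed to compound for 48 hours at five concentrations. Definition used: TGI = concentration required for complete inhibition of growth.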

With `O=C(/C=C(\S/C=C(/c1ccccc1)N1CCn2c(C(=O)c3ccccc3)c(C(=O)c3ccccc3)c(C(=O)c3ccccc3)c21)C(=O)c1ccccc1)c1ccccc1`, the TGI in [1], in [2], in experiment [3], in [4], in [5] and in experiment [6] was more than 10 µM in each case. For the same compound, the TGI in experiment [7], in experiment [8], in experiment [9] and in experiment [10] was more than 10 µM each time.

With `O=C(/C=C/c1cccc(Oc2ccccc2)c1)NCc1ccc(C(=O)NCCc2ccccc2)cc1`, the TGI in experiment [1], in experiment [2], in experiment [3], in experiment [4], in experiment [5] and in experiment [6] was more than 100 µM throughout. In addition, the TGI in experiment [7], in [8], in [9] and in [10] was more than 100 µM in each case.

For `NC1=Nc2cc(Cl)ccc2Sc2nc3ccccc3n21`, the TGI in experiment [1], in experiment [2], in experiment [3], in [4], in experiment [5] and in experiment [6] was more than 100 µM throughout. In addition, the TGI in experiment [7] is more than 100 µM; in [8] it was more than 100 µM; in experiment [9] it was 71 µM; in experiment [10] it was more than 100 µM.

On to `COC1=CC(=O)CC(C)C12Oc1c(Cl)c(OC)cc(OC)c1C2=O` (stereo not given), for which the TGI in experiment [1] is more than 100 µM; in experiment [2], more than 100 µM; in experiment [3], 23.1 µM; in [4], 84.9 µM; in [5], more than 100 µM; in [6], more than 100 µM. For the same compound, the TGI was more than 100 µM in experiment [7], 57.3 µM in [8], 98.3 µM in experiment [9] and more than 100 µM in experiment [10].

Consider `C=C1C(=O)O[C@@H]2[C@H](O)[C@@H](C)[C@@H]3C=CC(=O)[C@@]3(C)[C@@H](OC(=O)/C(C)=C/C)[C@H]12`, for which the TGI in [1] came out at 2.09 µM; in experiment [2] it was 5.26 µM; in [3], 0.258 µM; in experiment [4], 2.02 µM; in experiment [5], 6.92 µM; in [6] it was 13.4 µM. Moreover, the TGI in experiment [7] is 4.43 µM; in [8] it was 8.34 µM; in [9], 1.78 µM; in experiment [10], 1.49 µM.

In the case of `COCN1COCN=C1NC#N`, the TGI in experiment [1], in experiment [2], in experiment [3], in [4], in experiment [5] and in experiment [6] was more than 100 µM each time. Further, the TGI in experiment [7], in [8], in experiment [9] and in [10] was more than 100 µM each time.

With `C=C1CC(Cn2ccc(=O)[nH]c2=O)(c2ccc(Cl)cc2)OC1=O` (stereo not given), the TGI in experiment [1] was 4.47 µM; in [2], 31.7 µM; in experiment [3], 2.26 µM; in experiment [4] it was 6.77 µM; in experiment [5] it was more than 71.1 µM; in experiment [6], 32.2 µM. Besides, the TGI was 10.8 µM in [7], 38.6 µM in experiment [8], 3.89 µM in experiment [9] and 7.13 µM in experiment [10].

As to `COC1=CC2(CC(OC)=C1OC)OC21COc2ccccc2C1=O` (stereo not given), the TGI in [1], in [2], in experiment [3], in [4], in experiment [5] and in experiment [6] was more than 100 µM in each case. Also, the TGI in experiment [7], in experiment [8], in experiment [9] and in experiment [10] was more than 100 µM in each case.

In the case of `COc1cc2c3c(n(C)c(=O)c2cc1OC)-c1cc2c(cc1/C3=C\CCCI)OCO2`, the TGI is more than 36.3 µM in [1]; more than 100 µM in experiment [2]; more than 100 µM in experiment [3]; more than 100 µM in experiment [4]; more than 100 µM in experiment [5]; more than 100 µM in [6]. The TGI in experiment [7] is more than 100 µM; in experiment [8] it was more than 41.6 µM; in [9] it was more than 100 µM; in [10] it was more than 100 µM.

On to `CCCCCCCCCCCCCCC(O)C[N+](C)(CCO)CCO` (stereo not given), for which the TGI in experiment [1] worked out at 9.13 µM; in [2], 2.89 µM; in experiment [3], 5.03 µM; in experiment [4], 9.59 µM; in [5] it was 3.39 µM; in experiment [6] it was 34.3 µM. Besides, the TGI in [7] came to 16.9 µM; in experiment [8] it was 9.96 µM; in experiment [9] it was 5.76 µM; in [10], 7.54 µM.

As to `COc1cc2c(c(O)c1OC)CC1CCC(=O)N1C2c1cccc2ccccc12` (stereo not given), the TGI was more than 100 µM in experiment [1]; 42.9 µM in [2]; 41 µM in experiment [3]; 47.1 µM in experiment [4]; 45 µM in experiment [5]; more than 100 µM in [6]. Also, the TGI in [7] came out at 26.2 µM; in experiment [8], 41.1 µM; in experiment [9] it was 45.7 µM; in [10] it was 44.5 µM.

For `COC(=O)c1ccc(C)cc1CC1Cc2ccc(C)cc2C1=O` (stereo not given), the TGI in [1] is 26.4 µM; in experiment [2], 16.3 µM; in experiment [3], 5.48 µM; in experiment [4] it was more than 100 µM; in [5], more than 100 µM; in [6], 93.5 µM. The TGI in experiment [7] was 19.6 µM; in [8], 96.7 µM; in [9], 61.4 µM; in experiment [10] it was 24.3 µM.

Regarding `COc1ccc([C@@H]2CC(=O)N2)cc1`, the TGI in [1], in experiment [2], in [3], in experiment [4], in experiment [5] and in experiment [6] was more than 100 µM throughout. Moreover, the TGI in experiment [7], in [8], in experiment [9] and in experiment [10] was more than 100 µM in each case.

(Values after PubChem BioAssay (NCI).)
